# Experimental data from article PMC9133036 (Nature Communications, 2022).
# Where “and” joins values, the source holds several entries; their conditions need not be identical. Equal values may be shown once. Read-outs that look alike come from different tables or passages of the source.
# Tests used:
# human OX1R wild-type = target: T1, human OX1R wild-type (Homo sapiens, UniProt O43613); experiment: IP accumulation assay, OX1R WT; assay type: cell-based
# T1 construct: FLAG; expressed in transfected cells; host or cells: HEK293
# T1 sequence (O43613 1-425): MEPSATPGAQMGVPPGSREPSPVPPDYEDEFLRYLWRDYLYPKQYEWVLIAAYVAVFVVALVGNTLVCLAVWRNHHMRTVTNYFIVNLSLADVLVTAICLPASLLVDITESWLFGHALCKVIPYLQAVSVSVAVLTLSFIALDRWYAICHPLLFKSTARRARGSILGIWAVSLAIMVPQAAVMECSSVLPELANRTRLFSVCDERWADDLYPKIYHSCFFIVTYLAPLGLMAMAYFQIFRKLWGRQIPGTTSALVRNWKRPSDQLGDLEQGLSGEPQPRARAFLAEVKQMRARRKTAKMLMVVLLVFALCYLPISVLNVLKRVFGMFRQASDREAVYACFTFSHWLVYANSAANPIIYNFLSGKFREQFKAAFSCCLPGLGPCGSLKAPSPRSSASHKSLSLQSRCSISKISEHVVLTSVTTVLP
# Description: (§1) The IP assay was adapted from a prior precedent. HEK293 cells were maintained in DMEM-high glucose (Millipore Sigma) supplemented with 5% fetal bovine serum (Corning) and penicillin-streptomycin (Millipore Sigma). Receptor constructs used were the full-length wild-type (or mutant) human OX1R and OX2R sequences cloned into pCDNA3. To enhance the Emax in the IP assay, a plasmid encoding full-length human Gαq subunit[66] was co-transfected into HEK293 cells with plasmids encoding orexin receptor constructs using Lipofectamine 3000 (Thermo Fisher). 24 h after transfection, the cells were plated on poly-D-lysine coated (Millipore Sigma) tissue culture-treated 96 well white plates with clear bottoms (Perkin Elmer) at 30,000 cells per well in Inositol-free DMEM (MP Biomedicals) supplemented with 5% fetal bovine serum, 4 mM L-glutamine (Millipore Sigma), penicillin-streptomycin, and about 5 uCi (5 ul) per ml myo-[2-3H] inositol (Perkin Elmer). The following day, the media was replaced with agonists that were diluted in HBSS (Millipore Sigma) containing 10 mM lithium chloride (Millipore Sigma) and incubated at 37 °C for 45 min. Then agonists were removed and cells were lysed on ice for 30 min with 10 mM formic acid (Millipore Sigma). 1.25 mg of poly-lysine coated YSI SPA beads (Perkin Elmer) was added to each well. The plates were mixed on an orbital shaker for 30 min. The plates were read on a MicroBeta scintillation counter (Perkin Elmer) the following day. IP accumulation assays on different constructs were performed in n ≥ 3 independent experiments (each done in duplicate), where n is shown in Supplementary Table 2.
# OX2R T135A = target: T2, OX2R T135A (Homo sapiens, UniProt O43614, T135A); experiment: IP accumulation assay, OX2R T135A; assay type: cell-based
# T2 construct: FLAG; expressed in transfected cells; host or cells: HEK293
# T2 sequence (O43614 whole entry T135A): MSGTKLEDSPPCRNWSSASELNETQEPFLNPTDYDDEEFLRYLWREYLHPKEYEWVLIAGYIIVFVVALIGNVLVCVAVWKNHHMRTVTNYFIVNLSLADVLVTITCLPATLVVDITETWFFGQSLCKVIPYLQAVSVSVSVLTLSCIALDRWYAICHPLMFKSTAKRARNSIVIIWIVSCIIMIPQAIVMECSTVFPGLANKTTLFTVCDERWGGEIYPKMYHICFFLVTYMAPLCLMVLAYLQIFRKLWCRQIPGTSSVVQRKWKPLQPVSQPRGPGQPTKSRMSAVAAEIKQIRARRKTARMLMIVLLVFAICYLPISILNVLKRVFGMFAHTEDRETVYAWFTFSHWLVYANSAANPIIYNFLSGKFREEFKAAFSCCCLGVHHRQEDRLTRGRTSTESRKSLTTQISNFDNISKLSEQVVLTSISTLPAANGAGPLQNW
# Description: as §1, with “1.25 mg of poly-lysine coated YSI SPA beads (Perkin Elmer) was added to each well. The plates were mixed on an orbital shaker for 30 min.” left out, “IP accumulation assays on different constructs were performed in n ≥ 3 independent experiments (each done in duplicate), where n is shown in Supplementary Table 2.” left out
# OX2R Q187A = target: T3, OX2R Q187A (Homo sapiens, UniProt O43614, Q187A); experiment: β-arrestin PathHunter assay, OX2R Q187A; assay type: cell-based; details: β-arrestin recruitment
# T3 construct: expressed in transfected cells; host or cells: CHO-K1 stably expressing EA β-arrestin2
# T3 sequence (O43614 whole entry Q187A): as the sequence (O43614 whole entry T135A) above, with A135T, Q187A counted along it
# Description: (§2) β-Arrestin recruitment activity was measured by using the PathHunter system (DiscoveRX) according to the manufacturer’s instruction. Receptor constructs used were the full-length wild-type (or mutant) human OX2R sequences cloned into pCMV-ProLink (DiscoveRX). CHO-K1 cells stably expressing EA β-arrestin2 (DiscoveRX) were plated on 384 well white plates (Thermo Fisher) at 4000 cells/well in HamF12 (Wako Pure Chemical Industries) supplemented with 10% fetal bovine serum (Corning) and penicillin-streptomycin (Wako Pure Chemical Industries) and incubated overnight at 37 °C under 5% CO2. Cells were transfected with plasmids encoding wild type or each mutant ProLink-tagged human OX2R using FuGENE HD (Promega). […] Detection reagent was added and incubated for 1 h at room temperature. Luminescent signal was detected using an EnVision plate reader (PerkinElmer). β-arrestin assays on different constructs were performed in two or three independent experiments (each done in quadruplicate). Dose response curves (shown in Supplementary Fig. 8) were fitted to the three-parameter model ‘log(agonist) vs response’ in GraphPad Prism to determine pEC50 values.
# OX2R V353A = target: T4, OX2R V353A (Homo sapiens, UniProt O43614, V353A); experiment: β-arrestin PathHunter assay, OX2R V353A; assay type: cell-based; details: β-arrestin recruitment
# T4 construct: expressed in transfected cells; host or cells: CHO-K1 cells stably expressing EA β-arrestin2 (DiscoveRX), transiently transfected with pCMV-ProLink OX2R
# T4 sequence (O43614 whole entry V353A): as the sequence (O43614 whole entry T135A) above, with A135T, V353A counted along it
# T4 sequence (P32121 whole entry partner): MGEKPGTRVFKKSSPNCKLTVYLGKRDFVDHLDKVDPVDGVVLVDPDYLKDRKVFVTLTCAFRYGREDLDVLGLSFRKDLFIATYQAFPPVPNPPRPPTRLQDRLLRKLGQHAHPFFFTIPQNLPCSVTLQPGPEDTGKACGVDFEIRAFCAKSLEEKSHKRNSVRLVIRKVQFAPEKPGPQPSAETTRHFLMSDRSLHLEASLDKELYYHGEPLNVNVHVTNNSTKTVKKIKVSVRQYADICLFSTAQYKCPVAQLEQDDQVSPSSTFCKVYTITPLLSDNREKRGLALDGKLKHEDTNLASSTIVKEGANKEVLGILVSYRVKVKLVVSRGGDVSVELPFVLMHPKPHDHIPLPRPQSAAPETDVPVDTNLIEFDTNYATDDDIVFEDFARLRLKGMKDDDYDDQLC
# Description: as §2
# OX2R = details: cited from earlier work
# OX2R W120A = target: T5, OX2R W120A (Homo sapiens, UniProt O43614, W120A); experiment: β-arrestin PathHunter assay, OX2R W120A; assay type: cell-based; details: β-arrestin recruitment
# T5 construct: expressed in transfected cells; host or cells: CHO-K1 stably expressing EA β-arrestin2
# T5 sequence (O43614 whole entry W120A): as the sequence (O43614 whole entry T135A) above, with W120A, A135T counted along it
# Description: as §2
# human OX2R wild type = target: T6, human OX2R wild type (Homo sapiens, UniProt O43614); experiment: β-arrestin PathHunter assay, OX2R WT; assay type: cell-based; parameters: expressed in transfected cells; host or cells: CHO-K1 stably expressing EA β-arrestin2; details: listed as OxB
# T6 sequence (O43614 1-444): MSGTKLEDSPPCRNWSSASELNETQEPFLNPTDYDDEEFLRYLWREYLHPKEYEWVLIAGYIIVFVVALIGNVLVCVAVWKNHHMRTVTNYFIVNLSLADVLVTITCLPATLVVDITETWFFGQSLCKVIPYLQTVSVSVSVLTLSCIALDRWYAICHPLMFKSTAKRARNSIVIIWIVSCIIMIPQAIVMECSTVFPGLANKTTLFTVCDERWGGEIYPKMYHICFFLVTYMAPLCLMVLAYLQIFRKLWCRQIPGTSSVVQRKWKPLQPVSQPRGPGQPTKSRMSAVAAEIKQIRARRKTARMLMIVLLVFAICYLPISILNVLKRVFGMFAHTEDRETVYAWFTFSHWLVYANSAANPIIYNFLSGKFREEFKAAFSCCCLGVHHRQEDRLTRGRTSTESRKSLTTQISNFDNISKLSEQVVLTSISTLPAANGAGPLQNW
# Description: β-Arrestin recruitment activity was measured by using the PathHunter system (DiscoveRX) according to the manufacturer’s instruction. Receptor constructs used were the full-length wild-type (or mutant) human OX2R sequences cloned into pCMV-ProLink (DiscoveRX). […] Cells were transfected with plasmids encoding wild type or each mutant ProLink-tagged human OX2R using FuGENE HD (Promega). […] Detection reagent was added and incubated for 1 h at room temperature. Luminescent signal was detected using an EnVision plate reader (PerkinElmer). β-arrestin assays on different constructs were performed in two or three independent experiments (each done in quadruplicate). Dose response curves (shown in Supplementary Fig. 8) were fitted to the three-parameter model ‘log(agonist) vs response’ in GraphPad Prism to determine pEC50 values.
molecule,measurement,setting,value
"COC(=O)N1CCC[C@H](NS(C)(=O)=O)[C@@H]1CO[C@H]1CC[C@@H](c2ccccc2)CC1 [TAK-925, methyl (2R,3S)−3-[(methylsulfonyl)amino]−2-{[(cis−4-phenylcyclohexyl)oxy]methyl}piperidine-1-carboxylate]",activation at 100 µM,"human OX1R wild-type; 0.75 h, TAK-925 conc (log, M) -4.00, normalized to S103T/A127T Emax",59%
same,activation at 33.1 µM,"human OX1R wild-type; 0.75 h, TAK-925 conc (log, M) -4.48",40.3%
same,activation at 11.2 µM,"human OX1R wild-type; 0.75 h, TAK-925 conc (log, M) -4.95",23.1%
same,activation at 3.72 µM,"human OX1R wild-type; 0.75 h, TAK-925 conc (log, M) -5.43",13.6%
same,activation at 1.23 µM,"human OX1R wild-type; 0.75 h, TAK-925 conc (log, M) -5.91",8.76%
same,activation at 0.0457 µM,"human OX1R wild-type; 0.75 h, TAK-925 conc (log, M) -7.34",7.24%
same,pEC50,human OX1R wild-type; IP accumulation,not saturating
same,EC50,"human OX1R wild-type; IP accumulation, non-saturating",> 100 µM
same,EC50,OX2R T135A; IP accumulation,0.58 µM
same,Emax,OX2R T135A; relative to OX2R WT/TAK-925,90
same,EC50,OX2R Q187A,3.2 µM
same,EC50,OX2R V353A,5.5 µM
same,potency for OX2R activation,OX2R,low-nanomolar
same,EC50,OX2R W120A; read-out: EC50,> 30 µM
same,EC50,OX2R W120A; read-out: pEC50 (converted),> 30.2 µM
orexin B,beta-arrestin recruitment fold change,"human OX2R wild type; OxB concentration -6.00 (log, M)",25.382 fold and 21.415 fold and 21.711 fold and 14.809 fold
same,beta-arrestin recruitment fold change,"human OX2R wild type; OxB concentration -6.52 (log, M)",25.694 fold and 21.531 fold and 23.664 fold and 15.569 fold
same,beta-arrestin recruitment fold change,"human OX2R wild type; OxB concentration -7.00 (log, M)",27.509 fold and 22.224 fold and 24.930 fold and 18.908 fold
same,beta-arrestin recruitment fold change,"human OX2R wild type; OxB concentration -7.52 (log, M)",19.878 fold and 18.553 fold and 19.712 fold and 17.639 fold
same,beta-arrestin recruitment fold change,"human OX2R wild type; OxB concentration -8.00 (log, M)",16.213 fold and 13.992 fold and 16.040 fold and 14.141 fold
same,beta-arrestin recruitment fold change,"human OX2R wild type; OxB concentration -8.52 (log, M)",11.509 fold and 10.398 fold and 11.514 fold and 8.169 fold
same,beta-arrestin recruitment fold change,"human OX2R wild type; OxB concentration -9.00 (log, M)",4.809 fold and 5.512 fold and 5.245 fold and 5.387 fold
same,beta-arrestin recruitment fold change,"human OX2R wild type; OxB concentration -10.00 (log, M)",1.518 fold and 1.553 fold and 1.554 fold and 2.080 fold
